Solubility data for 2 molecules are collected here from patent publication US20060241175A1, “Vehicle for topical delivery of anti-inflammatory compounds” (priority 2002, published 2006).

≈ marks a conversion by molar mass, not a printed value. Where two headings read alike, the source gives them in different places.

One series in a line: physchem. Particulars: organic solvent or mixture, thermodynamic from solid.
The conditions of series [1]: in olive or corn oil; cited from earlier work.

In general, solubility refers to the concentration that dissolves in the medium under given conditions. Turning to `COc1ccc2c(c1)c(CC(=O)O)c(C)n2C(=O)c1ccc(Cl)cc1` [Indomethacin], the solubility in “physchem” (maximum solubility) was 160 mg/mL (≈ 447 mM); in series [1] it was “below 0.2%”.

With `CN1C(C(=O)Nc2ccccn2)=C(O)c2ccccc2S1(=O)=O` [Piroxicam], the values for the solubility (in the series “physchem” (solubility); in series [1]) were 2.9 to 3.2 mg/mL (≈ 8.75 to 9.66 mM) and “below 0.05%”, respectively.
